Cc1ncc(CO)c(CO)c1O.Cl
solubility (mole fraction)
Settings | 278.15 K | 283.15 K | 288.15 K | 293.15 K | 298.15 K | 303.15 K | 308.15 K | 313.15 K
in ethanol | 0.000447 | 0.000484 | 0.000557 | 0.000651 | 0.000801 | 0.000989 | 0.00118 | 0.00143
in methanol | 0.00221 | 0.00253 | 0.0028 | 0.00329 | 0.00373 | 0.00425 | 0.00486 | 0.00549
in water | 0.0105 | 0.0123 | 0.0144 | 0.0168 | 0.0191 | 0.022 | 0.025 | 0.0286

Source: BigSolDB 2.1
